Patent US5936065A, “CS-1 peptidomimetics, compositions and methods of using the same” (Cytel Corporation, priority 1995, dated 1999)
Square brackets hold non-standard residues; d marks the D form. Peptide text beside a SMILES is read from it. * marks the point of attachment. PhAc = O=C(Cc1ccccc1)*

What was measured:
[1] = Retention of potency in PBS containing 10 percent mouse or human serum; format: in vitro ADME; settings: PBS at 7.2-7.4 containing 10 percent mouse or human serum; 24 hours
[2] = tested on: BALB/c mice; assay: Adoptive transfer delayed type hypersensitivity (oxazolone) in mice; format: in vivo, mouse; settings: for reduction of inflammation (swelling diameter at challenge site), initial study: 6 mg/kg/day subcutaneously by implanted pump for 24 hours, ear swelling 24 hours after challenge, FIG. 5
Procedure: An adoptive transfer delayed-type hypersensitivity murine model has been developed using splenic T cells primed to oxazolone. This model is described in Elices et al., Clin. Exp. Rheum., 11(Suppl. 8):577-580 (1993), whose procedures were followed here.
Thus, BALB/c mice were shaved on the belly and painted (50 μl on the belly and 5 μl on each paw) with three percent oxazolone in acetone/olive oil (4:1) at days zero and 1. At day 5, the mice were sacrificed, their spleens removed, and splenic T cells were obtained via nylon wool columns.
Normal saline or saline containing 25×10^6 /animal of the oxazolone-immune T cells were separately injected into naive mice. The mice were then challenged by painting 10 μl of 2 percent oxazolone onto one ear each. All procedures were carried out under sterile conditions and in endotoxin-free buffers.
Prior to challenge or saline injection, the mice were implanted with pumps that subcutaneously administered normal saline, normal saline containing the compound, Compound ID No. 896.52, N-phenylacetyl-Leu-Asp-Phe-D-Pro-NH2, or normal saline containing a compound with a scrambled sequence continually at 6 mg/kg/day for a 24-hour time period. The swelling diameter at the site of challenge or saline injection was measured with a microcaliper 24 hours thereafter.
An expanded study was carried out as described above except that a scrambled compound control was not used as a control for further inhibitor compounds of Table 1 with larger groups of mice. Statistical analyses were carried out versus injection of vehicle alone.

[3] = tested on: SJL/J mice; assay: Experimental autoimmune encephalomyelitis in mice; format: in vivo; settings: 1 mg/mouse intraperitoneally at days 8 and 9; FIG. 6
Procedure: EAE was induced in female SJL/J mice (8 to 14 weeks old) by immunization on day zero with 50 μg of a compound corresponding to positions 139-151 of PLP emulsified in a 1:1 mixture of PBS and complete Freund's adjuvant (CFA). Each mouse was injected with 0.2 ml of the adjuvant emulsion subcutaneously (s.c.) at two sites in the hind flank. All mice received 10^7 killed Bordetella pertussis units in 100 μl were injected intravenously 24 to 72 hours later.
Mice were observed daily, beginning at day 8 for clinical signs of EAE, and disease was scored on a scale of 0-5 as: 0=no disease; 1=floppy tail; 2=moderate hind limb weakness; 3=paraparesis; 4=paraplegis with moderate forelimb weakness; 5=qualdriplegis or premoribund state.
The inhibitor compound, Compound ID No. 896.52, N-phenylacetyl-Leu-Asp-Phe-D-Pro-NH2 was administered intraperitoneally at 1 mg/mouse in 0.2 ml of incomplete Freund's adjuvant at days 8 and 9. A compound having a scrambled sequence [N-phenylacetyl-Asp-Leu-Phe-D-Pro-NH2 ] was similarly administered to serve as a control.
Summed or averaged scores for clinical signs were plotted vs. time. The area under the resulting curves was calculated between day 8 and day 35 to calculate percentage inhibition of EAE by an inhibitor compound. The percent inhibition was calculated as follows:
[…]

[4] = tested on: asthmatic sheep; assay: Treatment of asthmatic sheep (Ascaris suum antigen, double blind cross-over); format: in vivo; settings: for PC400, carbachol dosage required to increase SRL 4-fold: 24 hours after challenge, pre-challenge values about 20-23 BU; for specific lung resistance (SRL) after challenge: nebulized 1 mg/kg twice a day for three days, 0.5 hours prior to and four hours post challenge on day 4, FIG. 7
Procedure: Six asthmatic sheep were treated in a double blind cross-over study. […] This study was carried out generally as described in Abraham et al., J. Clin. Invest., 93:776-787 (1994).
The inhibitor compound used here was Compound ID No. 896.52, N-phenylacetyl-Leu-Asp-Phe-D-Pro-NH2, with a control compound that comprised the previously described compound having the same residues in a scrambled sequence. The vehicle for the nebulized compounds was phosphate-buffered saline. The compounds were administered at a dose of 1 mg/kg each, twice a day for three days prior to challenge, as well as 0.5 hours prior to and four hours post challenge on day 4. Because this was a crossover study, each animal received one or the other treatment, followed by a rest and then the other treatment. Each animal therefore served as its own control.
Post challenge airway responsiveness was also assayed. Here, specific lung resistance, SRL, returned to baseline values 24 hours after challenge, however, the sheep were hyperresponsive to inhaled carbachol at that time.

Row | Compound | loss of potency in serum-containing buffer [1] | reduction of inflammation (swelling diameter at challenge site), initial study [2] | Percent Inhibition of post-challenge swelling, expanded study ([2]; versus vehicle alone, implanted pump, 24 hours) | clinical signs of EAE [3] | PC400, carbachol dosage required to increase SRL 4-fold [4] | specific lung resistance (SRL) after challenge [4]
1 | CC(C)C[C@H](NC(=O)Cc1ccccc1)C(=O)N[C@@H](CC(=O)O)C(=O)N[C@@H](Cc1ccccc1)C(=O)N1CCC[C@@H]1C(N)=O [896.52, N-phenylacetyl-Leu-Asp-Phe-D-Pro-NH2] (PhAc-LDF[dP]-NH2) | no loss of potency | reduced this type of CS-1/VLA-4-mediated immunoinflammation | 36% | marked improvement in clinical signs | about 27 BU | less of a change from baseline specific lung resistance
2 | CC(C)C[C@H](NC(=O)[C@H](CC(=O)O)NC(=O)Cc1ccccc1)C(=O)N[C@@H](Cc1ccccc1)C(=O)N1CCC[C@@H]1C(N)=O [N-phenylacetyl-Asp-Leu-Phe-D-Pro-NH2, reference compound] (PhAc-DLF[dP]-NH2) | – | no reduction of inflammation | – | – | about 12 BU | had an increase in that pulmonary function
